Results: patent US20130060020A1, “Compounds useful for treating neurodegenerative disorders” (Satori Pharmaceuticals, Inc., priority 2011, published 2013)
Where two headings read alike, the source gives them in different places.

How the values were obtained:
Assay type in all cases: cell-based
Details in all cases: Homo sapiens, 5 hours treatment
Aβ-42 = Aβ-42 MSD 3-plex ELISA, conditioned media of 2B7 cells
Experimental: (§1) Assays were conducted to determine the ability of a Compound of Formula I to modulate […], and Aβ-38.
(§2) Plates with capture antibodies were blocked for 1-2 hours at room temperature with 150 μL of the manufactures blocking reagent.
(§3) Cultured 2B7 cells in 96 well plate with 250 μL of media per well until confluent;
(§4) Prepared serial dilutions of compounds in DMSO at 100× the final desired concentration;
(§5) Washed wells with 2B7 cells 1× with 250 μL of media;
(§6) Diluted DMSO stocks 1:100 into media: • Added 250 μL of media containing compounds (1% DMSO) to wells with 2B7 cells for 5 hours at 37° C.
(§7) ELISA Sample Prep: • Diluted conditioned media: 1 part media with 1% DMSO and 1 part blocking buffer; • 150 μL of the 250 μL of conditioned media were used.
(§8) Prepared per manufacturer's protocol (see above). • Seven point standard curve samples were prepared that contained Aβ-42, Aβ-40, and Aβ-38. The highest concentration of Aβ-42 and Aβ-38 was 3,000 pg/mL and the highest concentration of Aβ-40 was 10,000 pg/mL. Subsequent serial dilutions were 1:3 and the final composition of each sample was 1 part blocking buffer and 1 part cell medium containing 1% DMSO.
(§9) Overnight Sample Incubation: • Blocked plates are washed 5× with MSD wash buffer with a plate washer; • […] and blocker G reagent in MSD blocking solution was added; • 25 μL of samples (1 part conditioned media containing 1% DMSO and 1 part MSD blocking buffer) were then added; • Plates were incubated overnight at 4 degrees C. or 2 hours at room temperature.
(§10) Final Wash and Readout: • Washed wells 5× with MSD wash buffer; • Added 150 μL 2×MSD read buffer; • Read with MSD imager.
(§11) Aβ peptide levels for each peptide were calculated from the standard curve using the MSD software provided with the MSD 2400 Imager. Percent vehicle values for each compound dosage were then calculated and fit to a 4 parameter curve generating IC50 values.
(§12) Conditioned media from 2B7 cells (Mayo) was collected after 5 hours of treatment and diluted with 1 volume of Meso Scale Discovery (MSD, Gaithersburg Md.) blocking buffer (1% BSA in MSD wash buffer). For total Aβ measurements, standard-bind, multi-array single spot 96 well MSD ELISA plates were coated with unlabeled 4G8 capture antibody (Covance, Princeton, N.J.) overnight at 4° C. and then blocked with 5% BSA in MSD wash buffer for 1 hour at room temperature with orbital shaking Diluted 2B7 conditioned media were added to the blocked in-house total Aβ MSD plates with SULFO-TAG 6E10 antibody (MSD). For Aβ38, 40 and 42 measurements, diluted 2B7 conditioned media were added to blocked human (6E10) Aβ 3-Plex plates (MSD). Total Aβ and Aβ 3-Plex plates were incubated for 2 hours at room temperature with orbital shaking followed by washing and reading according to the manufacturer's instructions (SECTOR® Imager 2400, MSD). Aβ concentrations were converted to percent vehicle values and used to construct dose response curves which were fitted to […] using GraphPad Prism version 5.00 for Windows, GraphPad Software, San Diego Calif. USA.

Aβ-38 = Aβ-38 MSD 3-plex ELISA, conditioned media of 2B7 cells
Experimental: as §1, §2, §3, §4, §5, §6, §7, §8, §9, §10, §11, §12

Aβ-40 = Aβ-40 MSD 3-plex ELISA, conditioned media of 2B7 cells
Experimental: as §1, §2, §3, §4, §5, §6, §7, §8, §9, §10, §11, §12

[1] = inflection of dose response curve, read-out: Aβ 42 DR IC50 Inflection
[2] = inflection of dose response curve, read-out: Aβ 38 DR IC50 Inflection
[3] = inflection of dose response curve, read-out: Aβ 40 DR IC50 Inflection

SMILES | IC50 (Aβ-42; [1]) | IC50 (Aβ-42; read-out: Aβ 42 IC50) | IC50 (Aβ-38; read-out: Aβ 38 IC50) | IC50 (Aβ-40; read-out: Aβ 40 IC50) | IC50 (Aβ-38; [2]) | IC50 (Aβ-40; [3])
CCO[C@@H]([C@H]1C[C@@H](C)[C@H]2[C@H](O1)[C@H](O)[C@@]1(C)[C@@H]3CC[C@H]4C(C)(C)[C@@H](O[C@H]5CN(C(C)(C)C6CN(C)C6)CCO5)CC[C@@]45C[C@@]35CC[C@]21C)C(C)(C)O [Compound I-12] | 0.1 to 0.5 µM | 0.1 to 0.5 µM | 0.1 to 0.5 µM | 1 to 5 µM |  | 
CCO[C@@H]([C@H]1C[C@@H](C)[C@H]2[C@H](O1)[C@H](O)[C@@]1(C)[C@@H]3CC[C@H]4C(C)(C)[C@@H](O[C@H]5CN(C6CN(CC(F)F)C6)CCO5)CC[C@@]45C[C@@]35CC[C@]21C)C(C)(C)O [Compound I-9] | 0.1 to 0.5 µM | 0.1 to 0.5 µM | 0.501 to 1 µM | 1 to 5 µM |  | 
CCO[C@@H]([C@H]1C[C@@H](C)[C@H]2[C@H](O1)[C@H](O)[C@@]1(C)[C@@H]3CC[C@H]4C(C)(C)[C@@H](O[C@H]5CN(C6CCN(C7CCC7)CC6)CCO5)CC[C@@]45C[C@@]35CC[C@]21C)C(C)(C)O [Compound I-21] | 0.1 to 0.5 µM | 0.1 to 0.5 µM | 0.501 to 1 µM | 1 to 5 µM | 0.501 to 1 µM | 1 to 5 µM
CCO[C@@H]([C@H]1C[C@@H](C)[C@H]2[C@H](O1)[C@H](O)[C@@]1(C)[C@@H]3CC[C@H]4C(C)(C)[C@@H](O[C@H]5CN(CC6CN(CC7(C)COC7)C6)CCO5)CC[C@@]45C[C@@]35CC[C@]21C)C(C)(C)O [Compound I-26] | 0.1 to 0.5 µM | 0.1 to 0.5 µM | 0.501 to 1 µM | 1 to 5 µM | 1 to 5 µM | 1 to 5 µM
CCO[C@@H]([C@H]1C[C@@H](C)[C@H]2[C@H](O1)[C@H](O)[C@@]1(C)[C@@H]3CC[C@H]4C(C)(C)[C@@H](O[C@H]5CN(CC6(O)CN(C7COC7)C6)CCO5)CC[C@@]45C[C@@]35CC[C@]21C)C(C)(C)O [Compound I-45] | 0.1 to 0.5 µM | 0.1 to 0.5 µM | 0.1 to 0.5 µM | 1 to 5 µM |  | 
CCO[C@@H]([C@H]1C[C@@H](C)[C@H]2[C@H](O1)[C@H](O)[C@@]1(C)[C@@H]3CC[C@H]4C(C)(C)[C@@H](O[C@H]5CN(CC6CN(C(CO)CO)C6)CCO5)CC[C@@]45C[C@@]35CC[C@]21C)C(C)(C)O [Compound I-73] | 0.1 to 0.5 µM | 0.1 to 0.5 µM | 0.1 to 0.5 µM | 1 to 5 µM |  | 
CCO[C@@H]([C@H]1C[C@@H](C)[C@H]2[C@H](O1)[C@H](O)[C@@]1(C)[C@@H]3CC[C@H]4C(C)(C)[C@@H](O[C@H]5CN(CC6CN(C7CCC7)C6)CCO5)CC[C@@]45C[C@@]35CC[C@]21C)C(C)(C)O [Compound I-23] | 0.1 to 0.5 µM | 0.1 to 0.5 µM | 0.1 to 0.5 µM | 1 to 5 µM |  | > 5 µM
CCO[C@@H]([C@H]1C[C@@H](C)[C@H]2[C@H](O1)[C@H](O)[C@@]1(C)[C@@H]3CC[C@H]4C(C)(C)[C@@H](O[C@H]5CN(C6(C)CN(CC(C)(C)C)C6)CCO5)CC[C@@]45C[C@@]35CC[C@]21C)C(C)(C)O [Compound I-33] | < 0.1 µM | 0.1 to 0.5 µM | 0.1 to 0.5 µM |  |  | 
CCO[C@@H]([C@H]1C[C@@H](C)[C@H]2[C@H](O1)[C@H](O)[C@@]1(C)[C@@H]3CC[C@H]4C(C)(C)[C@@H](O[C@H]5CN(C6CN(C(CO)CO)C6)CCO5)CC[C@@]45C[C@@]35CC[C@]21C)C(C)(C)O [Compound I-74] | 0.1 to 0.5 µM | 0.1 to 0.5 µM | 0.1 to 0.5 µM | 1 to 5 µM |  | 
CCO[C@@H]([C@H]1C[C@@H](C)[C@H]2[C@H](O1)[C@H](O)[C@@]1(C)[C@@H]3CC[C@H]4C(C)(C)[C@@H](O[C@H]5CN(C(C)(C)C6CN(C7COC7)C6)CCO5)CC[C@@]45C[C@@]35CC[C@]21C)C(C)(C)O [Compound I-15] | 0.1 to 0.5 µM | 0.1 to 0.5 µM | 0.501 to 1 µM | 1 to 5 µM |  | > 5 µM
CCO[C@@H]([C@H]1C[C@@H](C)[C@H]2[C@H](O1)[C@H](O)[C@@]1(C)[C@@H]3CC[C@H]4C(C)(C)[C@@H](O[C@H]5CN(CC6CN(CC(C)(C)C)C6)CCO5)CC[C@@]45C[C@@]35CC[C@]21C)C(C)(C)O [Compound I-18] | 0.1 to 0.5 µM | 0.1 to 0.5 µM | 0.501 to 1 µM | 1 to 5 µM |  | 1 to 5 µM
CCO[C@@H]([C@H]1C[C@@H](C)[C@H]2[C@H](O1)[C@H](O)[C@@]1(C)[C@@H]3CC[C@H]4C(C)(C)[C@@H](O[C@H]5CN(C6(C)CN(CCOC)C6)CCO5)CC[C@@]45C[C@@]35CC[C@]21C)C(C)(C)O [Compound I-37] | < 0.1 µM | 0.1 to 0.5 µM | 0.1 to 0.5 µM | 1 to 5 µM |  | 
CCO[C@@H]([C@H]1C[C@@H](C)[C@H]2[C@H](O1)[C@H](O)[C@@]1(C)[C@@H]3CC[C@H]4C(C)(C)[C@@H](O[C@H]5CN(CC6(O)CN(C7CCC7)C6)CCO5)CC[C@@]45C[C@@]35CC[C@]21C)C(C)(C)O [Compound I-44] | < 0.1 µM | < 0.1 µM | 0.1 to 0.5 µM | 1 to 5 µM |  | 
CCO[C@@H]([C@H]1C[C@@H](C)[C@H]2[C@H](O1)[C@H](O)[C@@]1(C)[C@@H]3CC[C@H]4C(C)(C)[C@@H](O[C@H]5CN([C@H]6CCN(CC)C6=O)CCO5)CC[C@@]45C[C@@]35CC[C@]21C)C(C)(C)O [Compound I-1] | 0.501 to 1 µM | 0.501 to 1 µM | 0.501 to 1 µM | > 5 µM | 0.501 to 1 µM | > 5 µM
CCO[C@@H]([C@H]1C[C@@H](C)[C@H]2[C@H](O1)[C@H](O)[C@@]1(C)[C@@H]3CC[C@H]4C(C)(C)[C@@H](O[C@H]5CN(CC6(O)CN(C)C6)CCO5)CC[C@@]45C[C@@]35CC[C@]21C)C(C)(C)O [Compound I-42] | < 0.1 µM | < 0.1 µM | 0.1 to 0.5 µM | 0.501 to 1 µM |  | 
CCO[C@@H]([C@H]1C[C@@H](C)[C@H]2[C@H](O1)[C@H](O)[C@@]1(C)[C@@H]3CC[C@H]4C(C)(C)[C@@H](O[C@H]5CN(C6CN(CCF)C6)CCO5)CC[C@@]45C[C@@]35CC[C@]21C)C(C)(C)O [Compound I-4] | 0.1 to 0.5 µM | 0.1 to 0.5 µM | 0.501 to 1 µM | 1 to 5 µM |  | > 5 µM
CCO[C@@H]([C@H]1C[C@@H](C)[C@H]2[C@H](O1)[C@H](O)[C@@]1(C)[C@@H]3CC[C@H]4C(C)(C)[C@@H](O[C@H]5CN(C6(C)CN(C7COC7)C6)CCO5)CC[C@@]45C[C@@]35CC[C@]21C)C(C)(C)O [Compound I-36] | 0.1 to 0.5 µM | 0.1 to 0.5 µM | 0.501 to 1 µM |  |  | 
CCO[C@@H]([C@H]1C[C@@H](C)[C@H]2[C@H](O1)[C@H](O)[C@@]1(C)[C@@H]3CC[C@H]4C(C)(C)[C@@H](O[C@H]5CN(CC6(O)CN(CCO)C6)CCO5)CC[C@@]45C[C@@]35CC[C@]21C)C(C)(C)O [Compound I-69] | < 0.1 µM | < 0.1 µM | 0.1 to 0.5 µM | 0.501 to 1 µM |  | 
CCO[C@@H]([C@H]1C[C@@H](C)[C@H]2[C@H](O1)[C@H](O)[C@@]1(C)[C@@H]3CC[C@H]4C(C)(C)[C@@H](O[C@H]5CN(CC6(O)CN(CCOC)C6)CCO5)CC[C@@]45C[C@@]35CC[C@]21C)C(C)(C)O [Compound I-46] | < 0.1 µM | < 0.1 µM | 0.1 to 0.5 µM | 0.501 to 1 µM |  | 
CCO[C@@H]([C@H]1C[C@@H](C)[C@H]2[C@H](O1)[C@H](O)[C@@]1(C)[C@@H]3CC[C@H]4C(C)(C)[C@@H](O[C@H]5CN(CCN6CC(F)(F)C6)CCO5)CC[C@@]45C[C@@]35CC[C@]21C)C(C)(C)O [Compound I-64] | 0.1 to 0.5 µM | 0.1 to 0.5 µM | 0.501 to 1 µM |  |  | 
